The supplement of paper PMC10307832

Key:
Test in all cases: relative viability (nuclei count vs DMSO), 5 days (fraction); higher = more cells survive
[1] = compound: C[C@@H](C(=O)N[C@@H](C1CCCCC1)C(=O)N2CCC[C@H]2C(=O)N[C@@H]3[C@@H](CC4=CC=CC=C34)OCC#CC#CCO[C@@H]5CC6=CC=CC=C6[C@@H]5NC(=O)[C@@H]7CCCN7C(=O)[C@H](C8CCCCC8)NC(=O)[C@H](C)NC)NC [AZD5582] + COc1cc2c(Oc3ccc(NC(=O)C4(C(=O)Nc5ccc(F)cc5)CC4)cc3F)ccnc2cc1OCCCN1CCOCC1 [Foretinib] (partner 0.25 µM)
Summary of the method: (§1)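 Values are medians from duplicate plates. Each reflects relative viability, defined as the nuclei count of treated wells over that of vehicle wells. Lung cancer cell lines in 1536-well plates were pin-tool dosed one day after seeding with one drug alone or with a fixed anchor-drug dose plus five library-drug doses (not always all listed) in √10 steps, then fixed, stained and imaged at 4× after 5 days.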

[2] = compound: C[C@@H](C(=O)N[C@@H](C1CCCCC1)C(=O)N2CCC[C@H]2C(=O)N[C@@H]3[C@@H](CC4=CC=CC=C34)OCC#CC#CCO[C@@H]5CC6=CC=CC=C6[C@@H]5NC(=O)[C@@H]7CCCN7C(=O)[C@H](C8CCCCC8)NC(=O)[C@H](C)NC)NC [AZD5582] + Nc1ncn([C@H]2C[C@H](O)[C@@H](CO)O2)c(=O)n1 [Decitabine] (partner 2 µM)
Summary of the method: as §1

[3] = compound: C[C@@H](C(=O)N[C@@H](C1CCCCC1)C(=O)N2CCC[C@H]2C(=O)N[C@@H]3[C@@H](CC4=CC=CC=C34)OCC#CC#CCO[C@@H]5CC6=CC=CC=C6[C@@H]5NC(=O)[C@@H]7CCCN7C(=O)[C@H](C8CCCCC8)NC(=O)[C@H](C)NC)NC [AZD5582] + O=C(CCCCCCC(=O)Nc1ccccc1)NO [Vorinostat] (partner 1 µM)
Summary of the method: as §1

[4] = compound: Cn1nnc2c(C(N)=O)ncn2c1=O [Temozolomide] + CC1(C)CCC(c2ccc(Cl)cc2)=C(CN2CCN(c3ccc(C(=O)NS(=O)(=O)c4ccc(N[C@H](CCN5CCOCC5)CSc5ccccc5)c(S(=O)(=O)C(F)(F)F)c4)cc3)CC2)C1 [Navitoclax] (partner 0.5 µM)
Summary of the method: as §1

Cell Line | relative viability ([1]; first compound 0.001581 µM) | relative viability ([1]; first compound 0.005 µM) | relative viability ([1]; first compound 0.01581 µM) | relative viability ([1]; first compound 0.05 µM) | relative viability ([2]; first compound 0.001581 µM) | relative viability ([2]; first compound 0.005 µM) | relative viability ([2]; first compound 0.01581 µM) | relative viability ([2]; first compound 0.05 µM) | relative viability ([3]; first compound 0.001581 µM) | relative viability ([3]; first compound 0.005 µM) | relative viability ([3]; first compound 0.01581 µM) | relative viability ([3]; first compound 0.05 µM) | relative viability ([4]; first compound 0.2 µM) | relative viability ([4]; first compound 0.6325 µM) | relative viability ([4]; first compound 2 µM) | relative viability ([4]; first compound 6.325 µM) | relative viability ([4]; first compound 20 µM)
NCI-H3122 | 0.977 | 0.994 | 0.933 | 0.602 | 0.476 | 0.384 | 0.42 | 0.224 | 0.946 | 1.09 | 0.924 | 0.236 | 1.05 | 1.03 | 1.08 | 1.01 | 0.976
NCI-H838 | 0.985 | 1.19 | – | 1.06 | 0.451 | 0.41 | 0.476 | 0.396 | 0.716 | 0.775 | 0.855 | 0.956 | 1.13 | 1.11 | 1.17 | 1.19 | 1.17
NCI-H1975 | 0.926 | 1.17 | 1.06 | 1.2 | 0.35 | 0.408 | 0.412 | 0.276 | 0.699 | 0.872 | 0.687 | 0.885 | 1.2 | 1.11 | 1.2 | 1.07 | 1.13
NCI-H441 | 0.847 | 1.03 | – | 0.883 | 0.211 | 0.23 | 0.21 | 0.225 | 0.723 | 0.708 | 0.889 | 0.921 | 0.692 | 0.628 | 0.926 | 0.542 | 0.789
NCI-H23 | 0.762 | 0.872 | 0.787 | 0.952 | 0.334 | 0.293 | 0.27 | 0.278 | 0.445 | 0.583 | 0.483 | 0.448 | 1.04 | 0.93 | 0.857 | 0.86 | 0.851
HARA | 0.858 | 0.918 | 0.904 | 0.639 | 0.595 | 0.53 | 0.565 | 0.49 | 0.659 | 0.69 | 0.441 | 0.672 | 1.19 | 1.17 | 1.24 | 1.13 | 1.2
ABC-1 | 0.875 | 1.11 | 1.05 | 0.852 | 1.06 | 1.08 | 0.931 | 1.36 | 1.22 | 1.57 | 0.934 | 1.08 | – | – | – | – | –
NCI-H1563 | 0.897 | 0.958 | 0.894 | 0.924 | – | – | – | – | – | – | – | – | – | – | – | – | –
LOU-NH91 | 0.858 | 0.861 | 0.934 | 0.949 | 0.803 | 0.835 | 0.824 | 0.794 | 0.867 | 0.872 | 0.794 | 0.842 | 0.395 | 0.738 | 0.702 | 0.596 | 0.361
NCI-H596 | – | – | 1.19 | 0.279 | 1.02 | – | 1.06 | 0.39 | 0.506 | – | 0.629 | 0.527 | 0.9 | 0.924 | 0.946 | 0.977 | 0.981
NCI-H522 | – | – | – | – | 0.624 | 0.711 | 0.624 | 0.641 | 0.764 | 0.827 | 0.828 | 0.957 | – | – | – | – | –
EBC-1 | 0.098 | 0.101 | 0.11 | 0.107 | – | – | – | – | – | – | – | – | 0.512 | 0.41 | 0.358 | 0.384 | 0.404
NCI-H1648 | – | – | – | – | 0.502 | 0.528 | – | 0.466 | 0.415 | 0.441 | – | 0.476 | – | – | – | – | –
NCI-H1299 | 1.05 | 1.11 | 1.04 | 1.03 | – | – | – | – | – | – | – | – | 1.04 | 1.09 | 1.06 | 1.01 | 1.08
NCI-H1792 | – | – | – | – | 0.503 | 0.622 | 0.526 | 0.672 | – | – | – | – | 0.852 | 0.773 | 0.655 | 0.577 | 0.616
NCI-H1623 | 0.831 | 0.971 | 0.917 | 0.888 | – | – | – | – | – | – | – | – | – | – | – | – | –
SW 900 | 0.866 | 0.666 | 0.895 | 0.451 | 0.372 | 0.364 | 0.38 | 0.246 | 0.435 | 0.444 | 0.364 | 0.295 | – | – | – | – | –
LCLC-103H | 0.699 | 0.725 | 0.681 | 0.581 | 0.698 | 0.798 | 0.718 | 0.724 | 0.736 | 0.797 | 0.429 | 0.636 | – | – | – | – | –
A549 | 0.821 | 1.13 | 0.938 | 1.14 | 0.214 | 0.271 | 0.211 | 0.263 | – | – | – | – | 1.07 | 1.34 | 1.25 | 1.23 | 1.24
NCI-H2342 | 1.04 | 1.11 | 1.07 | 1.27 | 0.692 | 0.835 | 0.698 | 0.702 | 0.789 | 0.778 | 0.751 | 0.785 | – | – | – | – | –
Calu-6 | 0.695 | 0.523 | 0.826 | 0.437 | – | – | – | – | – | – | – | – | 0.927 | 0.804 | 0.942 | 0.82 | 0.781
IA-LM | 0.96 | 0.938 | 1.21 | 0.994 | – | – | – | – | 0.772 | 0.907 | – | 1 | 0.832 | 0.69 | 0.836 | 0.825 | 0.615
NCI-H661 | 0.954 | 0.982 | 1.03 | 0.98 | 0.525 | 0.571 | 0.573 | 0.556 | 0.742 | 0.786 | 0.806 | 0.762 | – | – | – | – | –
NCI-H650 | 1 | 0.958 | 0.91 | 0.794 | 0.327 | 0.3 | 0.321 | 0.306 | 0.316 | 0.305 | 0.308 | 0.619 | – | – | – | – | –
